One molecule from PubChem BioAssay AID652001 (The Scripps Research Institute Molecular Screening Center, 2013) can be followed below.

pIC50, pKi: −log10 of the molar value.

Assay [1] addresses Acyl-protein thioesterase 2 (Homo sapiens) (UniProt O95372). Nature of the assay: LYPLA2 enzyme kinetics with inhibitors – biochemical, substrate-based fluorescence, Ki, Km, Vmax, late-stage follow-up (AID 652001). The conditions noted are these: recombinant LYPLA2, resorufin acetate hydrolysis fluorescence.
For the next assay, the target named is LYPLA2. The assay is described as above. The conditions noted are these: recombinant LYPLA2, resorufin acetate hydrolysis fluorescence, Ki from Cheng-Prusoff.

Acyl-protein thioesterase 2 (Homo sapiens), sequence (O95372 whole entry, looked up): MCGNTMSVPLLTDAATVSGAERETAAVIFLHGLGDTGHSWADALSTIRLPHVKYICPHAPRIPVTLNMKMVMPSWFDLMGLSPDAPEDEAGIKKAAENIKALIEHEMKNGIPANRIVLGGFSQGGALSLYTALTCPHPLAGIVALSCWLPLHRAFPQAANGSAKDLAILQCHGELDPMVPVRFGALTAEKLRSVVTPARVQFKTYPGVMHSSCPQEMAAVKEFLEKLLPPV

One may read the pIC50 as the IC50 on a negative log10 scale, so that one unit is a factor of ten. As usually defined, the pKi is the negative decadic logarithm of the Ki, by convention in mol/L. On to `COc1ccc(N2CCN(C(=O)c3cc4c(s3)-c3ccccc3S(=O)(=O)C4)CC2)cc1`, for which the pIC50 in assay [1] was 6.29. At LYPLA2, the pKi was 6.64.
